From EPA's ToxValDB 9.5 (doi:10.2903/j.efsa.2014.3237)
≈ marks a conversion by molar mass, not a printed value.

Assays:
[1] = tested on: Apis mellifera; conditions: acute; duration: 48 hours; oral; unspecified; mortality
[2] = tested on: Bibionidae; conditions: chronic/long-term; duration: 28 days; development
[3] = tested on: Colinus virginianus; conditions: for LD50: acute, oral
[4] = tested on: Cyprinus carpio; conditions: acute; duration: 96 hours; mortality
[5] = tested on: Daphnia magna; conditions: chronic/long-term; duration: 21 days; reproduction
[6] = tested on: Mus musculus; conditions: chronic; duration: 18 months; histopathology: neoplastic
[7] = tested on: Oryctolagus sp.; conditions: reproduction developmental; body weight
[8] = tested on: Pimephales promelas; conditions: chronic/long-term; duration: 28 days; growth
[9] = tested on: Rattus norvegicus
[10] = tested on: Tagia sp.; conditions: mortality
[11] = tested on: Aphidius rhopalosiphi; assay: LR50; higher = less toxic; conditions: acute; duration: 48 hours; mortality
[12] = tested on: Typhlodromus pyri; assay: LR50; higher = less toxic; conditions: acute; duration: 7 days; mortality

## Cc1c(Br)c2ccc(F)cc2n1S(=O)(=O)c1ncn(S(=O)(=O)N(C)C)n1 [Amisulbrom]
[1]
  LD50: > 100 µg/piece
[2]
  NOEC: 0.111 mg/L
[3]
  LD50: > 2000 mg/kg-day
[3]; diet
  LD50: > 1080 mg/kg-day
[3]; reproduction developmental
  NOEC: 34.2 mg/kg-day
[4]
  LC50: 0.0229 mg/L (≈ 0.0491 µM)
[5]
  NOEC: 0.0197 mg/L
[6]
  NOAEL: 11.6 mg/kg-day
[7]
  NOAEL: 30 mg/kg-day
[8]
  NOEC: 0.037 mg/L
[9]; acute, oral
  LD50: > 5000 mg/kg-day
[9]; chronic, duration: 2 years, histopathology: neoplastic
  NOAEL: 11.1 mg/kg-day
[9]; reproduction developmental, reproduction
  NOAEL: 48.5 mg/kg-day
[10]; acute, duration: 14 days
  LC50: > 1000 mg/kg
[10]; chronic/long-term, duration: 28 days
  NOEC: 93.7 mg/kg
[11]
  LR50: > 1000 g/ha
[12]
  LR50: > 1000 g/ha
